The test concerns the target AChE (Musca domestica, UniProt Q7YWJ9). The test can be described thus: biochemical. The format is biochemical, fly. The procedure:
AChE (E.C. 3.1.1.7) (BR, 200 u/mg) from fly’s head and BuChE (E.C. 3.1.1.8) (BR, 20 u/mg) from horse serum were purchased from Shanghai Yuanye biological technology Co. Ltd (Shanghai, China).
The inhibitory activities of the compounds against AChE were evaluated according to Ellman’s coupled enzyme assay[47] with the following modifications. 90 μL potassium phosphate buffer (PBS, 0.1 M, pH 7.4), 10 μL the solution of 2 units/mL AChE in 0.1 M PBS (pH 7.4) and 10 μL the solution of 200 μM test compounds in the mixed solution of methanol-PBS (pH 7.4) (1:9, V/V) were added to each well of a 96-well plate. The methanol-PBS solution was used as a blank control. After incubation at room temperature for 10 min, 60 μL the solution of 10 mM DTNB in PBS was added into each the well. The plate was placed on crushed ices and cooled for 20 min. To each the well was added 30 μL the solution of 7.5 mM ATCh in PBS (pH 7.4). […] Each test was performed in triplicate. Inhibition rates of the enzyme were calculated relative to a control sample. The inhibitory activities against BuChE were measured as described above for AChE, using 0.7 unit/mL BuChE and 4 mM BuTCh instead of AChE and ATCh as the enzyme and substrate, respectively.
The probit value of the average inhibition rate for each test concentration and the corresponding lg[concentration] were used to establish enzyme inhibition regression equation by the linear least-square fitting method. IC50 values were calculated from the equations.

The mark [1] stands for this setting: Estimated values based on the results in Table 1 (inhibition rate at 10 μM), read-out: IC50 AChE, estimated values.
Setting [2] is: test concentration of the compound 10 μM.

Like-named read-outs stand apart in the source and are kept apart here.

AChE, sequence (Q7YWJ9 81-659): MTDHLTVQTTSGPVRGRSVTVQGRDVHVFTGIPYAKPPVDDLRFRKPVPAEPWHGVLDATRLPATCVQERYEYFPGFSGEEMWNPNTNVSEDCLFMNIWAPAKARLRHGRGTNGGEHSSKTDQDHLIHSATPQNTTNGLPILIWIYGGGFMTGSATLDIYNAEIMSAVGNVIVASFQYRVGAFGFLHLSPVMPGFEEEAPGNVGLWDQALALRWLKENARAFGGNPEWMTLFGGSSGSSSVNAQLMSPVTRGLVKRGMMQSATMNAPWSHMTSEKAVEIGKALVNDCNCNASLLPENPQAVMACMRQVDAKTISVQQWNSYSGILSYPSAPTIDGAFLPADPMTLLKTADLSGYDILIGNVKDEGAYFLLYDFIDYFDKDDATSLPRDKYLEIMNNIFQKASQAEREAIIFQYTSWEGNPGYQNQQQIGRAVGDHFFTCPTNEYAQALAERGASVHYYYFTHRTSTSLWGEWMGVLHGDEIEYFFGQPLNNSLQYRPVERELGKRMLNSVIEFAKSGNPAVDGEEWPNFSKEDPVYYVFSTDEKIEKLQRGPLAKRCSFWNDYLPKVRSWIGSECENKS

The term IC50 denotes the concentration needed to halve the response being measured. Consider `Cn1c2ccccc2c2cc[n+](-c3ccccc3Br)cc21.[Br-]` [Compound B8, 9-Methyl-2-(2-bromophenyl)-β-carboline bromide], for which, under setting [1], the IC50 is > 10 µM. For the same compound, under setting [2], the “Inhibition rate (%)” value came out at 32.1 ± 0.9 u %.
Consider `Cn1c2ccccc2c2cc[n+](-c3ccccc3)cc21.[Br-]` [Compound B1, 9-Methyl-2-phenyl-β-carboline bromide], for which the IC50 (read-out: IC50 ± S.D AChE) was 3.18 ± 0.12 µM. In addition, the “Inhibition rate (%)” value under setting [2] came out at 71.5 ± 0.3 l %.
Take `C1=[N+](c2ccccc2)CCc2c1n(Cc1ccccc1)c1ccccc21.[Br-]` [Compound A44]: the IC50 under setting [1] was > 10 µM. Further, under setting [2], the “Inhibition rate (%)” value turned out to be 31.2 ± 4.4 ef %.
In the same order, the values of `CCOC(=O)Cn1c2ccccc2c2cc[n+](-c3ccccc3)cc21.[Br-]` [Compound B45, 9-(Ethoxy-2-oxyethyl)-2-phenyl-β-carboline bromide] are > 10 µM and 42.0 ± 0.7 rs %.
Regarding `Cn1c2c(c3ccccc31)CC[N+](c1cc(Cl)cc(Cl)c1)=C2.[Br-]` [Compound A31], the IC50 (10 μM, read-out: IC50 AChE, NA) is > 10 µM. The “Inhibition rate (%)” value under setting [2] is 0.7 ± 0.5 stu %.
For `Cn1c2cc(Cl)ccc2c2cc[n+](-c3ccccc3)cc21.[Br-]` [Compound B37, 7-Chloro-9-methyl-2-phenyl-β-carboline bromide], the IC50 (read-out: IC50 ± S.D AChE) was found to be 0.57 ± 0.08 µM. The “Inhibition rate (%)” value under setting [2] was 89.9 ± 0.7 def %.
As for `Cn1c2c(c3ccccc31)CC[N+](c1ccccc1F)=C2.[Br-]` [Compound A2], under setting [1], the IC50 was > 10 µM. The “Inhibition rate (%)” value under setting [2] is given as 15.1 ± 2.8 mnop %.
For the compound `C=CCn1c2ccccc2c2cc[n+](-c3ccccc3)cc21.[Br-]` [Compound B41, 9-Allyl-2-phenyl-β-carboline bromide], the IC50 (read-out: IC50 ± S.D AChE) is 1.18 ± 0.3 µM. Further, under setting [2], the “Inhibition rate (%)” value stood at 78.2 ± 1.6 k %.
`Cn1c2c(c3ccccc31)CC[N+](c1cccc([N+](=O)[O-])c1)=C2.[Br-]` [Compound A28]: under setting [1], the IC50 is > 10 µM. The “Inhibition rate (%)” value under setting [2] is recorded as 14.5 ± 3.9 mnop %.
On to `COc1cccc([N+]2=Cc3c(c4ccccc4n3C)CC2)c1.[Br-]` [Compound A18], for which the IC50 under setting [1] is > 10 µM. In addition, under setting [2], the “Inhibition rate (%)” value came out at 4.7 ± 1.5 rst %.
In the same order, the values of `Cn1c2c(c3ccccc31)CC[N+](c1ccccc1Cl)=C2.[Br-]` [Compound A5] are > 10 µM and 2.4 ± 8.0 stu %.
As for `Cn1c2c(c3ccccc31)CC[N+](c1cccc(F)c1)=C2.[Br-]` [Compound A3], the IC50 under setting [1] is > 10 µM. The “Inhibition rate (%)” value under setting [2] is 22.4 ± 1.1 l %.
In the same order, the values of `Cc1cccc([N+]2=Cc3c(c4ccccc4n3C)CC2)c1.[Br-]` [Compound A21] are > 10 µM and 28.6 ± 1.7 k %.
As to `CCCn1c2ccccc2c2cc[n+](-c3ccccc3)cc21.[Br-]` [Compound B39, 9-Propyl-2-phenyl-β-carboline bromide], the IC50 (read-out: IC50 ± S.D AChE) is 3.08 ± 0.66 µM. Also, the “Inhibition rate (%)” value under setting [2] is given as 78.8 ± 0.9 jk %.
The like results for `[Br-].c1ccc(Cn2c3ccccc3c3cc[n+](-c4ccccc4)cc32)cc1` [Compound B44, 9-Benzyl-2-phenyl-β-carboline bromide] were, in that order, 11.2 ± 2.54 µM and 47.8 ± 2.0 q %.
Turning to `Cn1c2c(c3ccccc31)CC[N+](c1cccc(C(F)(F)F)c1)=C2.[Br-]` [Compound A26], the IC50 under setting [1] is > 10 µM. Besides, the “Inhibition rate (%)” value under setting [2] came to 12.8 ± 2.1 kln %.
The like results for `Cn1c2ccccc2c2cc[n+](-c3ccccc3O)cc21.[Br-]` [Compound B14, 9-Methyl-2-(2-hydroxyhenyl)-β-carboline bromide] were, in that order, > 10 µM and 23.9 ± 4.3 v %.
For `Cn1c2c(c3ccccc31)CC[N+](c1cccc(Br)c1)=C2.[Br-]` [Compound A9], under setting [1], the IC50 is > 10 µM. Also, under setting [2], the “Inhibition rate (%)” value came to 16.2 ± 3.3 mno %.
As to `Cn1c2c(c3ccccc31)CC[N+](c1cccc(C#N)c1)=C2.[Br-]` [Compound A24], the IC50 under setting [1] is > 10 µM. Also, under setting [2], the “Inhibition rate (%)” value was found to be 18.9 ± 0.3 lmn %.
In the case of `CCCCn1c2ccccc2c2cc[n+](-c3ccccc3)cc21.[Br-]` [Compound B42, 9-Butyl-2-phenyl-β-carboline bromide], for the setting “read-out: IC50 ± S.D AChE”, the half-inhibitory concentration (IC50) was determined as 2.91 ± 0.33 µM. In addition, the “Inhibition rate (%)” value under setting [2] stood at 65.7 ± 0.6 m %.
In the case of `COc1ccccc1[N+]1=Cc2c(c3ccccc3n2C)CC1.[Br-]` [Compound A17], under setting [1], the IC50 was > 10 µM. For the same compound, under setting [2], the “Inhibition rate (%)” value is listed as 5.8 ± 2.4 qrs %.
In the case of `CCn1c2ccccc2c2cc[n+](-c3ccccc3)cc21.[Br-]` [Compound B38, 9-Ethyl-2-phenyl-β-carboline bromide], the IC50 (read-out: IC50 ± S.D AChE) is 0.76 ± 0.21 µM. Besides, the “Inhibition rate (%)” value under setting [2] is reported as 87.8 ± 1.1 efgh %.
With `Cn1c2ccccc2c2cc[n+](-c3cccc([N+](=O)[O-])c3)cc21.[Br-]` [Compound B28, 9-Methyl-2-(3-nitrophenyl)-β-carboline bromide], under setting [1], the IC50 is > 10 µM. Further, the “Inhibition rate (%)” value under setting [2] is listed as 34.9 ± 1.8 tu %.
For `Cn1c2c(c3ccccc31)CC[N+](c1c(F)cccc1F)=C2.[Br-]` [Compound A29], the IC50 (10 μM, read-out: IC50 AChE, NA) was > 10 µM. In addition, the “Inhibition rate (%)” value under setting [2] is given as −3.3 ± 2.0 uv %.
The inhibition is the relative decrease from the control value, in per cent. As to `Cc1ccc(N2CCc3c(n(C)c4ccccc34)C2)cc1` [Compound C1, 9-methyl-2-p-toly-1,2,3,4-tetrahydro-β-carboline], the IC50 (10 μM, read-out: IC50 AChE, NA) is > 10 µM. Besides, for the setting “test concentration of the compound 10 μM, read-out: Inhibition rate (%)”, the inhibition at 10 µM was -2.3 ± 3.2%.
As to `COc1ccccc1-[n+]1ccc2c3ccccc3n(C)c2c1.[Br-]` [Compound B17, 9-Methyl-2-(2-methoxylphenyl)-β-carboline bromide], the IC50 under setting [1] was > 10 µM. For the same compound, the “Inhibition rate (%)” value under setting [2] amounted to 41.0 ± 2.9 rs %.
In the case of `Cn1c2ccccc2c2cc[n+](-c3c(F)cccc3F)cc21.[Br-]` [Compound B29, 9-Methyl-2-(2,6-difluorophenyl)-β-carboline bromide], the 50% inhibitory concentration (IC50) under setting [1] was ~10 µM. Moreover, the “Inhibition rate (%)” value under setting [2] is 48.5 ± 3.1 pq %.
In the same order, the values of `Cn1c2c(c3ccccc31)CC[N+](c1ccccc1O)=C2.[Br-]` [Compound A14] are > 10 µM and 23.2 ± 2.5 kl %.
Regarding `Cc1ccc2c(c1)c1cc[n+](-c3ccccc3)cc1n2C.[Br-]` [Compound B35, 6,9-Dimethyl-2-phenyl-β-carboline bromide], for the setting “read-out: IC50 ± S.D AChE”, the IC50 was determined as 0.42 ± 0.15 µM. Besides, the “Inhibition rate (%)” value under setting [2] is on record as 88.6 ± 2.5 efg %.
As to `Cn1c2c(c3ccccc31)CC[N+](c1ccccc1C#N)=C2.[Br-]` [Compound A23], the IC50 under setting [1] was > 10 µM. Besides, the “Inhibition rate (%)” value under setting [2] is given as 10.1 ± 1.6 pqr %.
The like results for `Brc1ccc([N+]2=Cc3[nH]c4ccccc4c3CC2)cc1.[Br-]` [Compound A47] were, in that order, > 10 µM and 16.0 ± 1.7 mnop %.
In the same order, the values of `Cn1c2c(c3ccccc31)CC[N+](c1ccc(Br)cc1F)=C2.[Br-]` [Compound A32] are > 10 µM and 11.1 ± 2.8 opq %.
Consider `Cn1c2c(c3ccccc31)CC[N+](c1ccc(Cl)cc1Cl)=C2.[Br-]` [Compound A30], for which the IC50 (10 μM, read-out: IC50 AChE, NA) was > 10 µM. Also, the “Inhibition rate (%)” value under setting [2] is −0.5 ± 2.4 tu %.
For the compound `Cn1c2c(c3ccccc31)CC[N+](c1ccccc1Br)=C2.[Br-]` [Compound A8], the IC50 under setting [1] is > 10 µM. In addition, under setting [2], the “Inhibition rate (%)” value is listed as 5.9 ± 1.0 qrs %.

These data come from PMC5784158, “New 2-Aryl-9-methyl-β-carbolinium salts as Potential Acetylcholinesterase Inhibitor agents: Synthesis, Bioactivity and Structure–Activity Relationship” (Scientific Reports, 2018).
